Source: patent publication US9440982B2 (Eolas Therapeutics, Inc., priority 2012, dated 2016)

Tests used:
[1] = molecular target: T1, OX1 (Homo sapiens, UniProt O43613); assay: Orexin receptor cell-based functional assay, [Ca2+]i by FLIPR, CHO-OX1 cells; settings: CHO-OX1 cells, [Ca2+]i by FLIPR, antagonist dose-range 0.1 nM-10 μM, EC90 of OXA; read-out: OX1
T1 construct: expressed in transfected cells; host or cells: CHO (CHO-OX1, kept under selection antibiotic)
T1 sequence (O43613 1-425): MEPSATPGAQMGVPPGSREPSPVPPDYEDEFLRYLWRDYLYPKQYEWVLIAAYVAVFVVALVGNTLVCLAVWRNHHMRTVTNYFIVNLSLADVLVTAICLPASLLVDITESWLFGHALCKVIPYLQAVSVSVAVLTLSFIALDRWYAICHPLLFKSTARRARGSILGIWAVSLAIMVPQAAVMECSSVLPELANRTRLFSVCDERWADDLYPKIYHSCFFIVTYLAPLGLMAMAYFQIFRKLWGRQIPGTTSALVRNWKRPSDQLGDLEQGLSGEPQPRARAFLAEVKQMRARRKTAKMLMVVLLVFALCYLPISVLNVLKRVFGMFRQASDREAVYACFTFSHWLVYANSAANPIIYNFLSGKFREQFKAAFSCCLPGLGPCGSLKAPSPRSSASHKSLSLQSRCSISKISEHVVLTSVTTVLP
Method in brief: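 CHO cells expressing human OX1 or OX2 loaded with calcium dye plus 2.5 mM probenecid at 37° C (calcium4, 30 min, or calcium6, 2 h), then exposed to compounds (0.1 nM-10 μM) for 30 min. Intracellular Ca2+ measured on FLIPR; antagonist format.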

[2] = molecular target: T2, CYP3A4 (Homo sapiens, UniProt P08684); assay: Cytochrome P450 inhibition assay (midazolam hydroxylation); type: in vitro ADME; settings: human, human liver microsomes, probe midazolam (hydroxylation to 1′-hydroxymidazolam), 10 μM test compound, midazolam at approximately its Km
T2 construct: pre-incubated with human liver microsomes and NADPH; from tissue; host or cells: human liver microsomes
T2 sequence (P08684 whole entry): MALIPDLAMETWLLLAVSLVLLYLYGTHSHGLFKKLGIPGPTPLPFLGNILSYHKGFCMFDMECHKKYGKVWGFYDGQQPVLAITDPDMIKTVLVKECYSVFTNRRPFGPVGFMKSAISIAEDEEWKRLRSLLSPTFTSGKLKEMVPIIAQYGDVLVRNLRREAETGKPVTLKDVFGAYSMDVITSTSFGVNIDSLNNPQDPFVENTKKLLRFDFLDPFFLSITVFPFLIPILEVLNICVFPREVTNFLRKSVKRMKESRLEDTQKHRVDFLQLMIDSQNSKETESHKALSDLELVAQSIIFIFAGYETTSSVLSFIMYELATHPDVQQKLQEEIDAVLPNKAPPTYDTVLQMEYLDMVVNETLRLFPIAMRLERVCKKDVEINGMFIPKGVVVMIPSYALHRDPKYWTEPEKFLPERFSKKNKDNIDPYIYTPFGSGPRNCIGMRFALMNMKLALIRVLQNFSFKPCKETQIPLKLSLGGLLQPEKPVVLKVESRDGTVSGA
Method in brief: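 Human liver microsomes; CYP3A4 activity as midazolam 1′-hydroxylation with substrate near Km, with or without 10 μM test compound, read as percent inhibition. For time-dependent inhibition, parallel samples were preincubated 30 min with NADPH before substrate, and percent inhibition compared with non-preincubated samples.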

| SMILES | IC50 [1] | inhibition at 10 µM [2] |
| --- | --- | --- |
| C[C@@H]1CCCN(C(=O)c2cc(Cl)ccc2-n2nccn2)[C@@H]1CNc1ncc(C(F)(F)F)cn1 [Example A160, (5-Chloro-2-(2H-1,2,3-triazol-2-yl)phenyl)((2S,3R)-3-methyl-2-(((5-(trifluoromethyl)pyrimidin-2-yl)amino)methyl)piperidin-1-yl)methanone] | 1 nM | 59% |
| C[C@@H]1CCCN(C(=O)c2cc(Cl)ccc2-n2nccn2)[C@@H]1CNc1ccc(C(F)(F)F)nn1 [Example A162, (5-Chloro-2-(2H-1,2,3-triazol-2-yl)phenyl)((2S,3R)-3-methyl-2-(((6-(trifluoromethyl)pyridazin-3-yl)amino)methyl)piperidin-1-yl)methanone] | 15 nM | 76% |
| Cc1ccc(-n2cccn2)c(C(=O)N2CCC[C@@H](C)[C@H]2CNc2ncc(C(F)(F)F)cn2)n1 [Example A166, ((2S,3R)-3-Methyl-2-(((5-(trifluoromethyl)pyrimidin-2-yl)amino)methyl)piperidin-1-yl)(6-methyl-3-(1H-pyrazol-1-yl)pyridin-2-yl)methanone] | 8 nM | 44% |
| Cc1ccc(-c2ccccn2)c(C(=O)N2CCC[C@@H](C)[C@H]2CNc2ncc(C(F)(F)F)cn2)n1 [Example A167, ((2S,3R)-3-Methyl-2-(((5-(trifluoromethyl)pyrimidin-2-yl)amino)methyl)piperidin-1-yl)(6′-methyl-[2,3′-bipyridin]-2′-yl)methanone] | 5 nM | 45% |
| Cc1ccc(-c2ccccn2)c(C(=O)N2CCC[C@@H](C)[C@H]2CNc2ccc(Cl)cn2)n1 [Example A169, ((2S,3R)-2-(((5-Chloropyridin-2-yl)amino)methyl)-3-methylpiperidin-1-yl)(6′-methyl-[2,3′-bipyridin]-2′-yl)methanone] | 8 nM | 60% |
| Cc1ccc(-n2nccn2)c(C(=O)N2CCC[C@@H](C)[C@H]2CNc2ncc(F)cn2)c1 [Example A171, ((2S,3R)-2-(((5-Fluoropyrimidin-2-yl)amino)methyl)-3-methylpiperidin-1-yl)(5-methyl-2-(2H-1,2,3-triazol-2-yl)phenyl)methanone] | 370 nM | 36% |
| Cc1ccc(-c2ccccn2)c(C(=O)N2CCC[C@@H](C)[C@H]2CNc2ncc(F)cn2)c1 [Example A179, ((2S,3R)-2-(((5-Fluoropyrimidin-2-yl)amino)methyl)-3-methylpiperidin-1-yl)(5-methyl-2-(pyridin-2-yl)phenyl)methanone] | 490 nM | 67% |
| Cc1ccc(-c2ncccn2)c(C(=O)N2CCC[C@@H](C)[C@H]2CNc2ncc(Cl)cc2F)c1 [Example A181, ((2S,3R)-2-(((5-Chloro-3-fluoropyridin-2-yl)amino)methyl)-3-methylpiperidin-1-yl)(5-methyl-2-(pyrimidin-2-yl)phenyl)methanone] | 4 nM | 76% |
| Cc1ccc(-c2ncccn2)c(C(=O)N2CCC[C@@H](C)[C@H]2CNc2ncc(F)cc2F)c1 [Example A182, ((2S,3R)-2-(((3,5-Difluoropyridin-2-yl)amino)methyl)-3-methylpiperidin-1-yl)(5-methyl-2-(pyrimidin-2-yl)phenyl)methanone] | 140 nM | 65% |
| Cc1ccc(-c2ncccn2)c(C(=O)N2CCC[C@@H](C)[C@H]2CNc2ncc(C(F)(F)F)cn2)n1 [Example A184, ((2S,3R)-3-Methyl-2-(((5-(trifluoromethyl)pyrimidin-2-yl)amino)methyl)piperidin-1-yl)(6-methyl-3-(pyrimidin-2-yl)pyridin-2-yl)methanone] | 5 nM | 34% |
| Cc1ccc(-c2ncccn2)c(C(=O)N2CCC[C@@H](C)[C@H]2CNc2ccc(C(F)(F)F)nn2)n1 [Example A185, ((2S,3R)-3-Methyl-2-(((6-(trifluoromethyl)pyridazin-3-yl)amino)methyl)piperidin-1-yl)(6-methyl-3-(pyrimidin-2-yl)pyridin-2-yl)methanone] | 46 nM | 33% |
| Cc1ccc(-c2ncccn2)c(C(=O)N2CCC[C@@H](C)[C@H]2CNc2ccc(Cl)cn2)n1 [Example A186, ((2S,3R)-2-(((5-chloropyridin-2-yl)amino)methyl)-3-methylpiperidin-1-yl)(6-methyl-3-(pyrimidin-2-yl)pyridin-2-yl)methanone] | 5 nM | 53% |
| Cc1ccc(-c2ncccn2)c(C(=O)N2CCC[C@@H](C)[C@H]2CNc2nnc(C(F)(F)F)s2)n1 [Example A187, ((2S,3R)-3-Methyl-2-(((5-(trifluoromethyl)-1,3,4-thiadiazol-2-yl)amino)methyl)piperidin-1-yl)(6-methyl-3-(pyrimidin-2-yl)pyridin-2-yl)methanone] | 200 nM | 40% |
| Cc1ccc(-n2nccn2)c(C(=O)N2CCC[C@@H](C)[C@H]2CN(C)c2ccc(C(F)(F)F)cn2)n1 [Example A194, ((2S,3R)-3-Methyl-2-((methyl(5-(trifluoromethyl)pyridin-2-yl)amino)methyl)piperidin-1-yl)(6-methyl-3-(2H-1,2,3-triazol-2-yl)pyridin-2-yl)methanone] | 6 nM | 79% |

Continued, values first:

| IC50 [1] | inhibition at 10 µM [2] | SMILES |
| --- | --- | --- |
| 13 nM | 68% | C[C@@H]1CCCN(C(=O)c2cc(Cl)ccc2-n2nccn2)[C@@H]1CNc1ccc(Cl)cn1 [Example A161] |
| 10 nM | 59% | Cc1ccc(-n2cccn2)c(C(=O)N2CCC[C@@H](C)[C@H]2CNc2ccc(Cl)cn2)n1 [Example A168, ((2S,3R)-2-(((5-Chloropyridin-2-yl)amino)methyl)-3-methylpiperidin-1-yl)(6-methyl-3-(1H-pyrazol-1-yl)pyridin-2-yl)methanone] |
| 1 nM | 51% | Cc1ccc(-n2nccn2)c(C(=O)N2CCC[C@@H](C)[C@H]2CNc2ccc(C(F)(F)F)cn2)n1 [Example A174, ((2S,3R)-3-Methyl-2-(((5-(trifluoromethyl)pyridin-2-yl)amino)methyl)piperidin-1-yl)(6-methyl-3-(2H-1,2,3-triazol-2-yl)pyridin-2-yl)methanone] |
| 1 nM | 33% | Cc1ccc(-n2nccn2)c(C(=O)N2CCC[C@@H](C)[C@H]2CNc2ncc(C(F)(F)F)cn2)n1 [Example A175, ((2S,3R)-3-Methyl-2-(((5-(trifluoromethyl)pyrimidin-2-yl)amino)methyl)piperidin-1-yl)(6-methyl-3-(2H-1,2,3-triazol-2-yl)pyridin-2-yl)methanone] |
| 6 nM | 37% | Cc1ccc(-n2nccn2)c(C(=O)N2CCC[C@@H](C)[C@H]2CNc2ccc(C(F)(F)F)nn2)n1 [Example A176, ((2S,3R)-3-Methyl-2-(((6-(trifluoromethyl)pyridazin-3-yl)amino)methyl)piperidin-1-yl)(6-methyl-3-(2H-1,2,3-triazol-2-yl)pyridin-2-yl)methanone] |
| 5 nM | 39% | Cc1ccc(-n2nccn2)c(C(=O)N2CCC[C@@H](C)[C@H]2CNc2ncc(Cl)cn2)n1 [Example A177, ((2S,3R)-2-(((5-Chloropyrimidin-2-yl)amino)methyl)-3-methylpiperidin-1-yl)(6-methyl-3-(2H-1,2,3-triazol-2-yl)pyridin-2-yl)methanone] |
| 1 nM | 59% | Cc1ccc(-n2nccn2)c(C(=O)N2CCC[C@@H](C)[C@H]2CNc2ncc(C(F)(F)F)cc2F)n1 [Example A188, ((2S,3R)-2-(((3-Fluoro-5-(trifluoromethyl)pyridin-2-yl)amino)methyl)-3-methylpiperidin-1-yl)(6-methyl-3-(2H-1,2,3-triazol-2-yl)pyridin-2-yl)methanone] |
| 120 nM | 37% | Cc1ccc(-n2nccn2)c(C(=O)N2CCC[C@@H](C)[C@H]2CNc2ccc(C#N)cn2)n1 [Example A189, 6-((((2S,3R)-3-Methyl-1-(6-methyl-3-(2H-1,2,3-triazol-2-yl)picolinoyl)piperidin-2-yl)methyl)amino)nicotinonitrile] |
| 2000 nM | 24% | Cc1ccc(-n2nccn2)c(C(=O)N2CCC[C@@H](C)[C@H]2CNc2ncc(C#N)cn2)n1 [Example A190, 2-((((2S,3R)-3-Methyl-1-(6-methyl-3-(2H-1,2,3-triazol-2-yl)picolinoyl)piperidin-2-yl)methyl)amino)pyrimidine-5-carbonitrile] |
| 4 nM | 57% | Cc1ccc(-n2nccn2)c(C(=O)N2CCC[C@@H](C)[C@H]2CNc2nc3cc(Cl)ccc3o2)n1 [Example A195, ((2S,3R)-2-(((5-Chlorobenzo[d]oxazol-2-yl)amino)methyl)-3-methylpiperidin-1-yl)(6-methyl-3-(2H-1,2,3-triazol-2-yl)pyridin-2-yl)methanone] |
